Assay results from EPA's ToxValDB 9.5.
In brackets after ≈: the same amount, converted by molar mass.

Columns and labels:
Ceriodaphnia dubia = details: chronic/long-term; duration: 7 days; reproduction
Canidae = details: chronic; duration: 1 years; oral; Dog Other; clinical signs
Lepomis macrochirus = details: acute; duration: 96 hours; mortality
Apis mellifera = details: acute, mortality
Anas platyrhynchos = details: oral, mortality
Rattus norvegicus = details: for LD50: acute, oral, mortality
Leuciscus idus = details: acute; duration: 96 hours; mortality
Mus musculus = details: acute; oral; mortality
Macaca mulatta = details: acute; oral; neurology
[1] = acute; oral; unspecified; mortality
Colinus virginianus = details: acute; oral; diet; mortality
Tagia sp. = details: acute; duration: 14 days; mortality

CNC(=O)Oc1cccc2c1OC(C)(C)C2 [Carbofuran]
NOEC (Ceriodaphnia dubia): 0.00016 mg/L
NOAEL (Canidae): 0.1 mg/kg-day
LC50 (Lepomis macrochirus): 0.18 µg/mL (≈ 0.814 µM)
LD50 (Apis mellifera; dermal): 0.0357 µg/piece
LD50 (Anas platyrhynchos; acute, unspecified, M): 0.71 mg/kg
LC50 (Anas platyrhynchos; short-term, feed): 1.6 mg/kg-day
LD50 (Rattus norvegicus): < 5.6 mg/kg
NOAEL (Rattus norvegicus; reproduction developmental, clinical signs): 0.1 mg/kg-day

O=C(O)CCCc1c[nH]c2ccccc12 [Indole-3-butyric acid]
LC50 (Leuciscus idus): 210 µg/mL (≈ 1030 µM)
LD50 (Mus musculus): 1920 mg/kg-day

C/C(=C/C=C/[C@@H](C)C(=O)O)[C@H]1CN[C@H](C(=O)O)[C@H]1CC(=O)O [L-Domoic acid]
LOAEL (Macaca mulatta): 5 mg/kg-day

[S] [Sulfur]
LD50 [1]: > 5000 mg/kg
LC50 (Oncorhynchus mykiss; acute, duration: 96 hours, mortality): > 0.063 µg/mL
NOEC (Oncorhynchus mykiss; chronic/long-term, duration: 28 days, growth): > 0.063 mg/L
LC50 (Colinus virginianus): > 1330 mg/kg-day
LC50 (Tagia sp.): > 1580 mg/kg
LD50 (Apis mellifera; oral, unspecified): > 100 µg/piece
LD50 (Rattus norvegicus): > 1760 mg/kg
NOAEL (Rattus norvegicus; short-term, duration: 28 days, no effects): > 1000 mg/kg-day
NOAEL (Rattus norvegicus; subchronic, duration: 90 days, no effects): 1000 mg/kg-day
